Numbered stars: 1 amine (or outer) side, 2 acyl side, 3 side chain; on linkers, the order of the positions; unused ones are H or OH. Square brackets hold non-standard residues; d marks the D form. Peptide text beside a SMILES is read from it. * marks the point of attachment. Phe(ψ(S)CH(OH)CH2N)Pro = O=C([C@@H]1CCCN1C[C@H](O)[C@H](Cc1ccccc1)N[*:1])[*:2]; X1 = CC(C)CC(C[C@H](O)[C@H](CC1CCCCC1)N[*:1])C(=O)[*:2]; Nle = CCCC[C@H](N)C(=O)O; Orn = NCCC[C@H](N)C(=O)O; Boc = CC(C)(C)OC(=O)*
Key:
[1] = Binding affinity against Retinol-binding protein
[2] = target: T1, Thermolysin (Bacillus thermoproteolyticus) (UniProt P00800); assay: Binding affinity against Thermolysin
T1 sequence (whole entry): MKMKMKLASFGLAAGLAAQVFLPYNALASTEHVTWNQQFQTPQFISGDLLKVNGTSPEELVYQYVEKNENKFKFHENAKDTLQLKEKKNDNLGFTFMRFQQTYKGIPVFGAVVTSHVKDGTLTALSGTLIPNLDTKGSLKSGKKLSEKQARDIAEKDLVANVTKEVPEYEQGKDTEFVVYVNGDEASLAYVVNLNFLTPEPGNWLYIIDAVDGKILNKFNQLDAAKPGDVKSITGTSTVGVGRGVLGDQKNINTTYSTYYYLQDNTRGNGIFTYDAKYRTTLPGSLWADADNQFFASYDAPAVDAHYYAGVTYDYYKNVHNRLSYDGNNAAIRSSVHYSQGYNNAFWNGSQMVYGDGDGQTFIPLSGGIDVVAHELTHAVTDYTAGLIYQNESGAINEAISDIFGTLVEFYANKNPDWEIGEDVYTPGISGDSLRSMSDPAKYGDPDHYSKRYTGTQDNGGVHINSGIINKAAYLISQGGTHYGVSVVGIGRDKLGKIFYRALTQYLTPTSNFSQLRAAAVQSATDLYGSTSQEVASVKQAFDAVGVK

[3] = target: Human immunodeficiency virus type 1 protease (Human immunodeficiency virus 1) (UniProt Q72874); assay: Affinity for HIV Protease
[4] = Binding affinity against Endothiapepsin
[5] = Binding affinity against enolase
[6] = test system: Purine nucleoside phosphorylase; assay: Binding affinity against Purine Nucleoside Phosphorylase
[7] = Binding affinity against Glucoamylase
[8] = Binding affinity against immunoglobulin
[9] = target: T2, Fatty acid-binding protein, intestinal (Homo sapiens) (UniProt P12104); assay: Binding affinity against Fatty acid-binding protein
T2 sequence (whole entry): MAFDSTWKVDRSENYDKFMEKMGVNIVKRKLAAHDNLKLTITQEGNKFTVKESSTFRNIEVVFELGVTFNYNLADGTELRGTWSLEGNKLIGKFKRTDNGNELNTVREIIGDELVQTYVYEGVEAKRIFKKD

[10] = Binding affinity against FK506 binding protein
[11] = Binding affinity against Arabinose binding protein of the compound
[12] = target: T3, Mast cell carboxypeptidase A (Homo sapiens) (UniProt P15088); assay: Binding affinity against Carboxypeptidase A
T3 sequence (whole entry): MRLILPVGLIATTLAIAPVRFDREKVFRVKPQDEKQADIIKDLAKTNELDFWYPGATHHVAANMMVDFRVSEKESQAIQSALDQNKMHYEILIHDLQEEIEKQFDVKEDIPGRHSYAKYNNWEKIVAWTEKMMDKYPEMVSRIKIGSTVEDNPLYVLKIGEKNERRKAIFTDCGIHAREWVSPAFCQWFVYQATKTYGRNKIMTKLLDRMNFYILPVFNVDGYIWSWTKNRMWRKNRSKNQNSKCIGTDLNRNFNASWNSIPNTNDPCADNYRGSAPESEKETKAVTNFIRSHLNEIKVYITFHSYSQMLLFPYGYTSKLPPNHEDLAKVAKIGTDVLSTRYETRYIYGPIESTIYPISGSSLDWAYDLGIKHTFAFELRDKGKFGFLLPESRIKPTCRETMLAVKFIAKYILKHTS

[13] = Binding affinity against TP isomerase
[14] = Binding affinity against Histidine-binding protein
[15] = Binding affinity against Penicillopepsin
[16] = Binding affinity against Xylose isomerase
Trypsin II (Bos taurus) = target: T4, Trypsin II (Bos taurus) (UniProt Q29463); assay: log Kd (Binding affinity against specified protein) value of the compound
T4 sequence (whole entry): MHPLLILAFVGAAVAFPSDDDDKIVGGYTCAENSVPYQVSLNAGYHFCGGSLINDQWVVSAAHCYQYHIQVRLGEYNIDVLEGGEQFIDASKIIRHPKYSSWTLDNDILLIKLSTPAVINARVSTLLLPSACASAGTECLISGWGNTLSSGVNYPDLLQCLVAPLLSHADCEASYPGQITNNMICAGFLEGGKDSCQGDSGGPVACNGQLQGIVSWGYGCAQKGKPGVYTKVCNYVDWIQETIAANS

[17] = target: Serine protease 1 (Homo sapiens) (UniProt P07477); assay: Binding affinity against trypsin
[18] = target: Prothrombin (Homo sapiens) (UniProt P00734); assay: Binding affinity against thrombin
[19] = Binding affinity against Neuraminidase
[20] = Binding affinity against Glucose binding protein

Serine protease 1 (Homo sapiens), sequence (P07477 whole entry): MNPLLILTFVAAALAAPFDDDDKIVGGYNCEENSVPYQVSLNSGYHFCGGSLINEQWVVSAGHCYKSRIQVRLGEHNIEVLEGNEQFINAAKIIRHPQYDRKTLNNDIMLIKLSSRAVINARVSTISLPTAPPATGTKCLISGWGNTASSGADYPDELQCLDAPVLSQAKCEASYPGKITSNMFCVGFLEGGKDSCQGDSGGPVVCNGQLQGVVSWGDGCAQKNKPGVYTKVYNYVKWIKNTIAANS

CC1=C(/C=C/C(C)=C/C=C/C(C)=C/CO)C(C)(C)CCC1
Log Kd [1]: -6.72

O=[N+]([O-])Nc1ccccc1
Log Kd [2]: -6.37

CC1(C)SC(C(NC(=O)Cc2ccccc2)C(=O)NCc2ccccc2)NC1C(=O)NC(CO)Cc1ccccc1 (stereo not given)
Log Kd [3]: -8.1

CCC(C)CNC(=O)C(CC(C)C)CC(O)C(CC1CCCCC1)NC(=O)C(Cc1c[nH]cn1)NC(=O)C(Cc1cccc2ccccc12)Cc1cccc2ccccc12 (stereo not given)
Log Kd [4]: -6.63

O=C(CP(=O)(O)O)NO
Log Kd [5]: -10.8

O=P(O)(O)OP(=O)(O)OP(=O)(O)OP(=O)(O)OC[C@H]1O[C@@H](n2cnc3cncnc32)[C@H](O)[C@@H]1O
Log Kd [6]: -5.85

OC[C@H]1NC[C@H](O)[C@@H](O)[C@@H]1O
Log Kd [7]: -4.02

CC(C)[C@H](NC(=O)N(C)Cc1ccccn1)C(=O)N[C@@H](Cc1ccccc1)C[C@@H](O)[C@H](Cc1ccccc1)NC(=O)[C@@H](NC(=O)N(C)Cc1ccccn1)C(C)C
Log Kd [3]: -10.5

COC(=O)[C@@H](NC(=O)[C@@H](NC(=O)[C@H](C)N1CCC([C@H](C)NC(=O)[C@H](C)N)=C[C@@H](Cc2ccccc2)C1)C(C)C)C(C)C
Log Kd [3]: -6.37

CC[C@H](C)[C@H](NC(=O)[C@@H](NC[C@H](CC(C)C)NC(=O)[C@H](Cc1c[nH]cn1)NC(=O)[C@H](Cc1ccccc1)NC(=O)[C@@H]1CCCN1C(=O)[C@H](Cc1c[nH]cn1)NC(=O)[C@@H]1CCCN1)C(C)C)C(=O)N[C@@H](Cc1c[nH]cn1)C(=O)N[C@@H](CCCCN)C(=O)O
Log Kd [4]: -6.8

O=P(O)(O)OP(=O)(O)OC[C@H]1O[C@@H](n2cnc3cncnc32)[C@H](O)[C@@H]1O
Log Kd [6]: -6.22

CC(C)CC(C[C@H](O)[C@H](CC1CCCCC1)NC(=O)[C@H](Cc1c[nH]cn1)NC(=O)[C@H](Cc1ccccc1)NC(=O)OC(C)(C)C)C(=O)N[C@@H](CCCCN)C(=O)N[C@@H](Cc1ccccc1)C(=O)O (stereo not given in full) (Boc-FH[X1]KF-OH)
Log Kd [4]: -7.11

N#Cc1ccc(NC(=N)NC(c2ccccc2)c2ccccc2)cc1
Log Kd [8]: -7.28

CCCCCCCCCCCCCCCC(=O)O
Log Kd [9]: -5.43

CC(C)[C@H](NC(=O)N(C)Cc1ccccn1)C(=O)N[C@@H](Cc1ccccc1)[C@H](O)[C@H](O)[C@H](Cc1ccccc1)NC(=O)[C@@H](NC(=O)N(C)Cc1ccccn1)C(C)C
Log Kd [3]: -10.1

CC[C@H](C)[C@H](NC(=O)[C@@H]1CCCN1C[C@H](O)[C@H](Cc1ccccc1)NC(=O)[C@H](CC(N)=O)NC(=O)[C@H](CC(C)C)NC(=O)[C@H](CO)NC(C)=O)C(=O)N[C@H](C(=O)OC)C(C)C (Ac-SLN[Phe(ψ(S)CH(OH)CH2N)Pro]IV-OMe)
Log Kd [3]: -9.63

C=CC[C@@H]1/C=C(\C)C[C@H](C)C[C@H](OC)[C@H]2O[C@@](O)(C(=O)C(=O)N3CCCC[C@H]3C(=O)O[C@H](/C(C)=C/[C@@H]3CC[C@@H](O)[C@H](OC)C3)[C@H](C)[C@@H](O)CC1=O)[C@H](C)C[C@@H]2OC
Log Kd [10]: -9.7

OC1OC[C@H](O)[C@H](O)[C@H]1O (stereo not given in full)
Log Kd [11]: -7.03

CC(C)[C@H](NC(=O)N(C)Cc1ccccn1)C(=O)N[C@@H](Cc1ccccc1)C(O)C(O)[C@H](Cc1ccccc1)NC(=O)[C@@H](NC(=O)N(C)Cc1ccccn1)C(C)C (single isomer, unassigned)
Log Kd [3]: -10.1

NCCCC[C@H](NC(=O)CN)C(=O)O (H-Gly-Lys-OH)
Log Kd [12]: -3.89

O=C(O)COP(=O)(O)O
Log Kd [13]: -4.82

CC(C)CN(C[C@@H](O)[C@H](Cc1ccccc1)NC(=O)O[C@H]1CCOC1)S(=O)(=O)c1ccc(N)cc1
Log Kd [3]: -9.23

CC(C)C[C@H](NC(=O)C[C@H](O)[C@H](CC1CCCCC1)NC(=O)CC[C@H](O)[C@H](Cc1ccccc1)NC(=O)OC(C)(C)C)C(=O)NCc1cccc(CN)c1
Log Kd [4]: -4.8

C[C@@H](O)[C@H](NC(=O)[C@@H]1CCCN1)C(=O)N[C@@H](CCC(=O)O)C(=O)N[C@H](CN[C@@H](Cc1ccccc1)C(=O)N[C@@H](CCCN=C(N)N)C(=O)N[C@@H](CCC(=O)O)C(=O)O)Cc1ccccc1
Log Kd [4]: -7.22

N[C@@H](Cc1c[nH]cn1)C(=O)O
Log Kd [14]: -7.31

O=C1N(Cc2ccc3ccccc3c2)[C@H](Cc2ccccc2)[C@H](O)[C@@H](O)[C@@H](Cc2ccccc2)N1Cc1ccc2ccccc2c1
Log Kd [3]: -9.52

CC(C)C[C@H](N)C(=O)NO
Log Kd [2]: -3.72

O=P(O)(O)OP(=O)(O)OP(=O)(O)OP(=O)(O)OP(=O)(O)OC[C@H]1O[C@@H](n2cnc3cncnc32)[C@H](O)[C@@H]1O
Log Kd [6]: -5.96

CC(C)N(C[C@H](O)[C@H](CC1CCCCC1)NC(=O)[C@H](Cc1c[nH]cn1)NC(=O)[C@H](Cc1ccccc1)NC(=O)OC(C)(C)C)C(=O)N[C@@H](CCCCN)C(=O)N[C@@H](Cc1ccccc1)C(=O)O
Log Kd [4]: -6.58

CC(C)C[C@H](NC(CCc1ccccc1)C(=O)O)C(=O)N[C@@H](Cc1c[nH]c2ccccc12)C(=O)O (stereo not given in full)
Log Kd [2]: -7.13

OC[C@H]1O[C@@H](O)[C@H](O)[C@@H](O)[C@H]1O
Log Kd [11]: -6.65

CCOC(=O)CC(OP(=O)(O)O)C(CC(C)C)NC(=O)[C@@H](NC(=O)[C@@H](NC(=O)CC(C)C)C(C)C)C(C)C (stereo not given in full)
Log Kd [15]: -7.66

CC=O
Log Kd [3]: -8.41

CC[C@H](C)[C@@H](NC(=O)[C@@H](C[C@H](O)[C@H](CC(C)C)NC(=O)[C@H](Cc1c[nH]cn1)NC(=O)[C@H](Cc1ccccc1)NC(=O)[C@@H]1CCCN1C(=O)[C@@H](N)Cc1c[nH]cn1)C(C)C)C(=O)N[C@@H](Cc1c[nH]cn1)C(=O)O
Log Kd [4]: -9.02

CC(C)[C@H](N)C(=O)N[C@@H](Cc1c[nH]c2ccccc12)C(=O)O (H-Val-Trp-OH)
Log Kd [2]: -5.91

CC(C)C[C@H](NP(=O)(O)O[C@@H]1O[C@@H](C)[C@H](O)[C@@H](O)[C@H]1O)C(=O)N[C@@H](Cc1c[nH]c2ccccc12)C(=O)O
Log Kd [2]: -7.56

CC(C)[C@H](NC(=O)N(C)Cc1ccccn1)C(=O)N[C@@H](Cc1ccccc1)[C@@H](O)[C@H](O)[C@H](Cc1ccccc1)NC(=O)[C@@H](NC(=O)N(C)Cc1ccccn1)C(C)C
Log Kd [3]: -9.01

OC[C@@H](O)[C@H](O)[C@@H](O)CO
Log Kd [16]: -5.83

N=C(N)c1ccccc1
Log Kd (Trypsin II (Bos taurus)): -1.83
Log Kd [17]: -4.74

O=C(N[C@H]1c2ccccc2C[C@H]1O)[C@H](Cc1ccccc1)CC(O)C[C@@H](Cc1ccccc1)C(=O)N[C@H]1c2ccccc2C[C@H]1O
Log Kd [3]: -9.15

NC(N)=NCCC[C@H](NC(=O)[C@@H]1CCCN1C(=O)C(N)Cc1ccccc1)C(=O)O (stereo in doubt)
Log Kd [18]: -6.24

CC1(C)SC(C(NC(=O)Cc2ccccc2)C(=O)NCc2ccccc2)NC1C(=O)NC(Cc1ccccc1)C(O)CC(=O)NCC1=NC2C=CC=CC2=N1 (stereo not given)
Log Kd [3]: -9.69

CC(C)C[C@H](NP(=O)(O)O)C(N)=O
Log Kd [2]: -5.89

CC(=O)N[C@H]1[C@H]([C@H](O)[C@H](O)CO)OC(C(=O)O)=C[C@@H]1O
Log Kd [19]: -5.31

C[C@H]1OC(O)[C@H](O)[C@@H](O)[C@H]1O (stereo not given in full)
Log Kd [11]: -5.43

NCCCCc1ccccc1
Log Kd [17]: -1.7

CCOC(=O)CC(O)C(CC(C)C)NC(=O)[C@@H](NC(=O)[C@@H](NC(=O)CC(C)C)C(C)C)C(C)C (stereo not given in full)
Log Kd [15]: -7.71

OC[C@H]1OC(O)[C@H](O)[C@@H](O)[C@@H]1O (stereo not given in full)
Log Kd [20]: -7.6

CCCC[C@H](NC(=O)[C@H](CCCC)NC(=O)[C@@H](NC(=O)[C@@H](NC(C)=O)[C@@H](C)O)[C@@H](C)CC)C(=O)N[C@@H](CCCN)C(=O)N[C@@H](CCCN=C(N)N)C(N)=O (Ac-TI[Nle][Nle][Orn]R-NH2)
Log Kd [3]: -6.11

Source: ChEMBL document CHEMBL1135481, “SMall Molecule Growth 2001 (SMoG2001): an improved knowledge-based scoring function for protein-ligand interactions” (J Med Chem, 2002)
